According to article doi:10.1101/2024.12.18.629081v1 (biorxiv, 2024):

Columns and labels:
GCK = biological target: T1, GCK (Homo sapiens, UniProt P35557); assay: G6PDH-coupled activation assay, A340; assay type: biochemical
T1 sequence (P35557 1-465): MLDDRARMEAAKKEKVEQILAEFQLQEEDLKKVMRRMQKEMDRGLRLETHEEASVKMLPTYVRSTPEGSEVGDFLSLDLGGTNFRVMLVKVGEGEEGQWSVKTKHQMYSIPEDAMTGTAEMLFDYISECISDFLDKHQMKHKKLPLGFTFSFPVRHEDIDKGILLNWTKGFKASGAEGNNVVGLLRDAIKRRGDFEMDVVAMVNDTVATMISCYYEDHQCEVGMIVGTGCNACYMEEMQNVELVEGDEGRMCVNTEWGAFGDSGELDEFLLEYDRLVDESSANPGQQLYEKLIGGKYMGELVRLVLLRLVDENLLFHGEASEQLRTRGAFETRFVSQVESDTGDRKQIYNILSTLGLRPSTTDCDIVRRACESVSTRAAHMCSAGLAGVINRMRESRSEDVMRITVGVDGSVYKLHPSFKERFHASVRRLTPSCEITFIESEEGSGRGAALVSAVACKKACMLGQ

FGFR3 = FGFR3 (Homo sapiens, UniProt P22607); assay: SPR; assay type: binding
Sequence of FGFR3 (P22607 449-759): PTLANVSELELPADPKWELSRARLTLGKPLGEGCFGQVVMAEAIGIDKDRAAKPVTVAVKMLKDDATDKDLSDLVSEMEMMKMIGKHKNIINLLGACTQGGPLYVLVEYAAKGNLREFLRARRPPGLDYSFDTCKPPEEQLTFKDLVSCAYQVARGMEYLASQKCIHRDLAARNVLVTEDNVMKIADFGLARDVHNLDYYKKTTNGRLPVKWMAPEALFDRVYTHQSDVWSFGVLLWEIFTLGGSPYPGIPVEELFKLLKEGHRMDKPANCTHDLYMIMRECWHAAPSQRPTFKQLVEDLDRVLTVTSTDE

EC50 (GCK)	Kd (FGFR3)	SMILES
0.15 µM		Cc1cccc(Nc2ccc(Sc3nnc[nH]3)nc2C(=O)Nc2nccs2)c1 [G11]
	599 µM	Nc1nc2c(s1)[C@H](c1ccc(F)cc1)CC(=O)N2 [F4]
1.81 ± 0.28 µM		CNc1ccc(Sc2nnc[nH]2)nc1C(=O)Nc1nccs1 [G0]
	61.4 µM	Nc1nc2c(s1)[C@H](c1ccccc1OCc1ccc(Cl)cc1)CC(=O)N2 [F42]
